Test results published in patent US20260234207A1, “Keratin YK93-8, and Preparation Method Therefor, Pharmaceutical Composition Thereof and Use Thereof” (INSTITUTE OF MATERIA MEDICA, CHINESE ACADEMY OF MEDICAL …, priority 2022, published 2026).
Where a name gives a salt, the structure may show the parent alone. Read-outs that look alike come from different tables or passages of the source.

Assays:
[1] = tested on: acetic acid-induced writhing of mice; assay: Pharmacodynamic test on mouse pain model (acetic acid-induced writhing); assay type: in vivo, Male Kunming mice; conditions: 1% acetic acid intraperitoneally, writhing within 15 minutes
Method: • Animals: Male Kunming mice; • Drugs: Tramadol Hydrochloride Sustained Release Tablets, Glacial acetic acid, YK93-8; • Instruments: electronic balance, timer • Experiment grouping: • Normal control group; • Positive control group: Tramadol Hydrochloride group; • Protein YK93-8, (0.5 g/kg) group. • Method:
Mice in the YK93-8 (0.5 g/kg) group were administered by gavage, while mice in the model group were given an equal volume of CMC-Na once a day for 7 consecutive days. 30 minutes after the last administration, 1% acetic acid was administered intraperitoneally, and the writhing times of mice within 15 minutes was recorded, and the inhibition rate of drug-induced writhing reaction was calculated. The observation criteria were concave abdominal cavity, extended hind limbs, and raised buttocks.
The inhibition rate was calculated by (Mean number of writhing reactions in the normal control group−Mean number of writhing reactions in the treatment group)/Mean number of writhing reactions in the normal control group *100%.

[2] = tested on: mouse prostatic hyperplasia model; assay: Pharmacodynamic test on mouse prostatic hyperplasia model (propionate testosterone, androgen loading); conditions: for Average weight / wet weight of the prostate: 30 days of administration; for prostate index: 30 days, wet weight of the prostate (mg)/body weight (g)
Method: Preparation of experimental animals: The experimental animals were adapted to the experimental environment (temperature 22° C.±2° C., relative humidity 50%±2%) for 1 day.
Subcutaneous injection of propionate testosterone to replicate mice prostatic hyperplasia model: Mice were randomly grouped 10 in each group before the model being established. Propionate testosterone (0.01 mg/kg) in soybean oil was injected subcutaneously, once a day for 30 consecutive days. Mice in the normal control group were injected subcutaneously with an equal volume of sodium carboxymethyl cellulose. […] Mice were weighed on the next day. After 30 days of administration, mice were weighed, executed. The prostate was excised through a median incision in the lower abdomen, the wet weight was weighed, and the prostate index was calculated by the wet weight of the prostate (mg)/body weight of the mouse (g).
The average value, standard deviation and standard error of the prostate index in each group were calculated. The data from the groups were compared with each other by T.TEST, and P<0.05 was considered as a significant difference.

[3] = tested on: Lewis lung cancer
Method: Subcutaneous inoculation of Lewis cell suspension to replicate mouse Lewis lung cancer model: The Lewis tumor tissue was ground into a suspension with a glass homogenizer, the tumor suspension was aspirated with a syringe, the number of live cells was calculated, the concentration of the cells was adjusted to 2.6*10^6/ml with physiological saline, and then the suspension was injected to the left armpit of the mouse with 0.2 ml/mouse. On the next day, the mice were randomly divided into normal control group, cyclophosphamide (100 mg/kg) group, and YK93-8 (0.5 g/kg) group. Cyclophosphamide was injected intraperitoneally for single time, mice in YK93-8 group were given intragastric administration every day for 10 consecutive days, mice in the normal control group were orally given the equal volume of sodium carboxymethyl cellulose. On the day of the treatment, the weight was measured, 20 μl of blood was obtained from the orbital blood and the routine blood analysis was performed. The tumor blocks were stripped, weighed and photographed, and the tumor suppression rate was calculated.
(§1) The tumor suppression rate [(The average weight of the tumor in the normal control group—the average weight of the tumor in the experimental group)/The average weight of the tumor in the normal control group×100%] and the average value, standard deviation and standard errors of tumor weight were calculated.

[4] = tested on: B16F10 melanoma
Method: (§2) • Animals: female C57BL/6J mice; • Drugs: Cyclophosphamide for injection (CTX), YK93-8 • Instruments: electronic balance, Five classified blood cell analyser • Experiment grouping: • Normal control group; • Positive control group: cyclophosphamide group (100 mg/kg); • Protein YK93-8, (2 g/kg) group. • Method:
Subcutaneous inoculation of B16F10 cell suspension to replicate a mouse melanoma model: Under sterile conditions, the tumor block was removed, ground into tumor fluid, the concentration was adjusted with physiological saline to 2.58×10^6/ml, and 0.2 ml was taken to evenly inoculate subcutaneously on the armpit back of mice. On the next day, the animals were randomly grouped and administration began (recorded as Day 0). CTX (100 mg/kg) was administered once a week, YK-93-8 (2 g/kg) was administered daily, and mice in the normal control group were orally administered an equal volume of sodium carboxymethyl cellulose. On the day of treatment, weight was measured, 20 μL of blood was obtained by taking blood from the eye socket and the blood routine analysis was performed, the tumor block was peeled off, weighed and photographed, and the tumor suppression rate was calculated.
as §1, with “and” for “and the”

[5] = tested on: EL-4 lymphoma
Method: as §2, with “Male” for “female”, “mice” for “mice;”, “cyclophosphamide” for “cyclophosphamide group”
Subcutaneous inoculation of EL-4 cell suspension to replicate a mouse lymphoma model: The EL-4 tumor tissue was ground into a suspension using a glass homogenizer, the tumor suspension was aspirated with a syringe, the number of live cells was calculated, the cell concentration was adjusted to 2.0*10^6/ml with physiological saline, and then the suspension was injected into the left armpit of mice with 0.2 ml/mouse. On the next day, mice were randomly divided into a normal control group, a cyclophosphamide (100 mg/kg) group, and a YK93-8 (2 g/kg) group. Cyclophosphamide was injected intraperitoneally for single time, mice in the YK93-8 (2 g/kg) group were orally administered by gavage daily for 13 consecutive days, while mice in the normal control group were administered orally with an equal volume of sodium carboxymethyl cellulose. On the day of treatment, weight was measured, 20 μl of blood was obtained from the orbital blood and the routine blood analysis was performed. The tumor blocks were stripped, weighed and photographed, and the tumor suppression rate was calculated.
as §1, with “and” for “and the”

[6] = tested on: lactation of pregnant mice; assay: Pharmacodynamic test on lactation of pregnant mice; assay type: in vivo, female Kunming pregnant mice; conditions: 2 g/kg by gavage, 13 days
Method: • Animals: female Kunming pregnant mice, weight: 30-50 grams • Drug: YK93-8 • Instruments: electronic balance • Experiment grouping: • Normal control group; • Protein YK93-8, (2 g/kg) group. • Method:
The parturition date of each pregnant mouse was recorded and the mice were randomly divided into normal control group and YK 93-8 group based on the parturition date.
YK93-8 (2 g/kg) was administered by gavage, and the weight and weight gain of the young mice were recorded daily. After 13 days of administration, the female mouse was euthanized using cervical dislocation method, and […] of blood samples were collected from the eye socket, left standing at room temperature for 1-2 hours, centrifuged 1000 g for 20 minutes. The content of prolactin in serum was measured.
The average daily weight gain of young mice (lactation yield of female mice) and serum prolactin content of female mice in each group were calculated.

[7] = 0.1 g/kg intraperitoneally, single time
[8] = 100 mg/kg intraperitoneally, single time, P<0.05
[9] = 0.5 g/kg intragastric every day for 10 days
[10] = 2 g/kg by gavage daily for 13 days

Molecule: COc1cccc(C2(O)CCCCC2CN(C)C)c1 (stereo not drawn) [Tramadol Hydrochloride]
- Number of writhing ([1]; 50 mg/kg): 0.0 ± 0.00

Molecule: CC(C)(C)NC(=O)[C@H]1CC[C@H]2[C@@H]3CC[C@H]4NC(=O)C=C[C@]4(C)[C@H]3CC[C@]12C [finasteride]
- Average weight ([2]; 1 mg/kg orally): 43.5 ± 3.5 g
- wet weight of the prostate ([2]; 1 mg/kg orally): 31.8 ± 4.8 mg
- prostate index ([2]; 1 mg/kg orally): 0.75 ± 0.12
- Average weight ([2]; 3 mg/kg orally): 40.7 ± 3.1 g
- wet weight of the prostate ([2]; 3 mg/kg orally): 29.2 ± 1.4 mg
- prostate index ([2]; 3 mg/kg orally): 0.72 ± 0.08

Molecule: O=P1(N(CCCl)CCCl)NCCCO1 (stereo not drawn) [cyclophosphamide, Cyclophosphamide]
- Change of weight (g) Before administration ([3]; 0.1 g/kg group): 17.60 ± 0.59 g
- Change of weight (g) After administration [3, 7]: 19.95 ± 0.77 g
- Tumor suppression (%) [3, 7]: 95.35%
- Tumor weight [3, 7]: 0.14 ± 0.09 g
- Change of weight (g) Before administration ([4]; 0.1 g/kg group): 18.97 ± 0.55 g
- Change of weight (g) After administration ([4]; 0.1 g/kg once a week): 19.07 ± 1.46 g
- Tumor suppression (%) ([4]; 0.1 g/kg once a week): 85.82%
- Tumor weight ([4]; 0.1 g/kg once a week): 0.26 ± 0.11 g
- Tumor suppression (%) [5, 7]: 95.67%
- Tumor weight [5, 7]: 0.12 ± 0.03 g
- leukocytes (blood routine test) [5, 8]: significantly reduced
- lymphocytes (blood routine test) [5, 8]: significantly reduced
- monocytes (blood routine test) [5, 8]: significantly reduced
- neutrophils (blood routine test) [5, 8]: significantly reduced

B1: YK93-8: keratin with the amino acid sequence shown in SEQ ID NO.1, expressed in Escherichia coli, band around 63 KD; protein of Example 3 (protein, listed as Manis pentadactyla)
chain: MSCRSYRVSSGRQIGNFSSCSAVMPQSLSRFRASSVSCRSGPGFRGLGGFGSRSVIAFGSCPPRMAAVGPRPIRCGVGFSAGSGLAFGLGDSCGAGLGFGTGSGLGYGFGGPGFGYRIGGVGVPAAPSITAVTVNQSLLTPLNLEIDPNAQRVKRDEKEQIKTLNNKFASFIDKVRFLEQQNKLLETKWNFLQDQKGVQSNLEPLFENYVANLRRQLDIVSSDQARLETERNNMQDVLEGFKKKYEEEVVFRANAENEFVALKKDVDAAFLNKSDLEANVDALIQEIDFLKNLYMAEIQLLQSHISDTSVIVKMDNSRDLNFDGIIAEVKAQYEEVARRSRADAEAWYQTKYEEMRMTAGQHSDNLRNTRDEINELTRVIQRLKAEIEHTKAQRAKLEAAIAEAEQQGEAALNDAKCKLADLEAALQQAKQDMARQLREYQELMNIKLALDIEIATYRRLLEGEEIRICEGVGPVNISVSSSRGGVVCGPEPLLTSSTLSRGGVTFSGGSSIRSSGACGLSLGGSRVVAAGGDVLSAGSRGGSVLVGDACAPSIPCPLPTDGGFSSCSGGRSSLGSSVRFVSTTTSRRTKY
- Change of weight (g) Before administration ([3]; 0.5 g/kg group): 17.91 ± 0.26 g
- Change of weight (g) After administration [3, 9]: 21.93 ± 0.93 g
- Tumor suppression (%) [3, 9]: 27.83%
- Tumor weight [3, 9]: 2.16 ± 0.47 g
- Number of writhing ([1]; 0.5 g/kg by gavage once a day for 7 days): 13.76 ± 11.84
- Change of weight (g) After administration ([4]; 2 g/kg daily): 19.78 ± 0.76 g
- Tumor suppression (%) ([4]; 2 g/kg daily): 50.18%
- Tumor weight ([4]; 2 g/kg daily): 0.90 ± 0.41 g
- Change of weight (g) Before administration ([4]; 2 g/kg group): 19.20 ± 0.54 g
- wet weight of the prostate ([2]; 0.5 g/kg orally): 44.3 ± 9.3 mg
- prostate index ([2]; 0.5 g/kg orally): 1.12 ± 0.20
- weight gain of young mice (lactation yield of female mice) [6]: no significant effect
- serum prolactin content in female mouse ([6]; vs normal control group): to some extent increase
- Tumor suppression (%) [5, 10]: 13.18%
- Tumor weight [5, 10]: 2.44 ± 0.23 g
